Assays:
Format in all cases: cell-based, Escherichia coli
wild type E. coli = assay: IPTG sensitivity spot assay, DinQ ORFs over-expressed from pET28b(+)
Procedure: A. IPTG sensitivity in strains plated on IPTG. An aliquot or serially diluted (10-1-10-5 cells ml-1) log-phase cultures of wild type E. coli with empty expression vector pET28b(+) or vector constructs with alternative DinQ ORFs were spotted onto LB plates containing no IPTG (left panel) or 0.6 mM IPTG (right panel). The […] indicates a toxic effect with DinQ ORF 2-5 when the translation is forced by IPTG induction.
Expression plasmids pET28b-ORF1, pET28b-ORF2, pET28b-ORF3, pET28b-ORF4 and pET28b-ORF5 contains the DinQ ORF1, ORF2, ORF3, ORF4 and ORFS open reading frames inserted in the NcoI-BamHI restriction sites of the pET28b(+) vector (Novagen).
The mechanism underlying the UV sensitive phenotype of DinQ in a multicopy situation or under upregulation in an agrB mutant is unknown. The dinQ gene contain two putative open reading frames in which one of the reading frames encode three putative start codons (ii-iv, see FIG. 1C). […] To examine if any of the open reading frames mediate the UV sensitivity each reading frame were cloned into the expression vector pET28b(+) and expressed under control of IPTG (FIG. 4A). […] Next, DinQ ORF […] expression was titrated with increasing concentrations of IPTG (FIG. 4C) showing that ORF IV is highly toxic to the cells at very low doses of IPTG induction. […]

E. coli cells = assay: Membrane depolarization, DiBAC4(3) uptake by flow cytometry after IPTG induction; details: 5 and 20 minutes after 1 mM IPTG
Procedure: Cells were grown to OD600≅0.4 in LB and then induced with IPTG to a final concentration of 1 mM. At 0, 5 and 20 minutes culture samples were diluted 1:10 in filtered AB minimal medium (Clark and MaalØe, 1967) +10 μg ml-1 DiBAC4(3) (Sigma-Aldrich). After 20 minutes incubation in the dark at room temperature, cells were analysed in a Flowcytometry LSRII (Becton Dickinson) equipped with an argon ion laser and a krypton laser (both Spectra Physics). DiBAC4(3) was detected in channel 580 using 488 nm laser. Parameters were collected as logarithmic signals. The two populations were easily separated in each staining experiment. The data obtained was analyzed by winMDI software.
To examine whether DinQ affects membrane polarization, the inventors tested the ability of E. coli cells with dinQ containing plasmids to take up the dye DiBAC4(3) [bis-(1,3-dibarbituric acid)-trimethine oxanol]. The dye enters cells upon membrane depolarization leading to increased fluorescence. Cells were taken 5 and 20 minutes after induction of DinQ expression with IPTG, incubated with DiBAC4(3) for 20 min and analyzed by flow cytometry (FIG. 9).

agrB mutant BK4043 = assay: Intracellular ATP concentration, luciferase-based assay; details: agrB mutant with up-regulated DinQ peptide vs wild type AB1157
Procedure: Aliquots of cells were harvested before and 20 minutes after induction with IPTG to a final concentration of 1 mM and washed once in 50 mM Tris-Acetate pH 7.75. ATP was extracted from washed cells by 1% (TCA) trichloraceticacid in 50 mM Tris-Acetate pH 7.75 for 10 minutes. Tris-acetate buffer (1 ml) was added 1:10 to obtain optimal pH of 7.75 before mixing with rL/L reagent (ENLITEN ATP assay, Promega) at room temperature. The amount of ATP extracted (RLU value) was measured with 20/20 Luminometer (Turner Designs) and related to the OD600 for each sample.
The effect of DinQ peptide on the intracellular ATP concentration was measured using a quantitative luciferase-based assay (see materials and methods for details). […] Extracts from uninduced and SOS-induced agrB cells and wild-type cells, AB1157, were analysed 20 minutes after exposure by UV irradiation (sublethal doses).

E. coli [1] = assay: Microscopy of E. coli overexpressing dinQ ORF5 upon IPTG induction; details: 4 h after IPTG 1 mM
Procedure: E. coli capable of overexpressing dinQ ORF5 were plated (LB agar 2%, kan, tet, amp) and incubated (O/N, 37° C.). A single colony was picked and grown (37° C., 16 h, 200 rpm) in liquid media (LB, kan, tet, amp). The culture was then adjusted to OD600=0.03 in fresh media (LB, kan, tet, amp) and allowed to grow (37° C., 16 h, 200 rpm) back to OD600=0.5 before induction with IPTG (1 mM). After incubation (4 h, 37° C., 200 rpm) an aliquot (200 μl) of the E. coli suspension was removed and fixed in MeOH (1 ml, −20° C.). After centrifugation (2000 rpm, 4° C., 5 min) the cells were aspirated and re-suspend in NaCl (0.9% in H2O). The samples were then spotted onto slides and allowed to dry (42° C.). The slides were then washed 3×H2O and allowed to air dry (RT) before microscopy (see FIG. 20).

E. coli [2] = assay: Small colony variant count after IPTG induction of dinQ ORF5; details: IPTG 1 mM
Procedure: E. coli capable of overexpressing dinQ ORFS were incubated (O/N, 37° C., 200 rpm) before subculturing to OD600=0.01 (LB, kan, tet, amp). After incubation (37° C., 200 rpm) to OD600=0.5 expression of the toxin was either induced with IPTG (1 mM) or not. At time points after the addition the bacteria were serially diluted (×10) and plated (LB, 2% agar). After incubation (16 h, 37° C.) the plates were counted. Colony size was estimated and those 10× smaller than a typical colony were counted as a small colony variant SCV (see FIG. 21).

E. coli ER2566 = assay: UV radiation survival spot assay of dinQ variants; details: UV irradiation of 24 J/m2, compared with intact dinQ (pBK444)
Source text: The spots in FIG. 22 represent E. coli ER2566 dilutions in the range of 100-10-5 (left to right). UV irradiation of 24 J/m2 was used to induce dinQ toxicity (right picture), and was compared to the unirradiated control assay (left picture). Control cells carry the vector plasmid (pKK232-8), and cells carrying the plasmid encoding intact dinQ (pBK444), were used as reference.
The spots FIG. 23 represent E. coli ER2566 dilutions in the range of 10^0-10^−5 (left to right). UV irradiation of 24 J/m2 was used to induce dinQ toxicity (right picture), and was compared to the unirradiated control assay (left picture). Control cells carry the vector plasmid (pKK232-8), and cells carrying the plasmid encoding intact dinQ (pBK444), were used as reference (see FIG. 23).

Substance	effect on membrane integrity / depolarization (DiBAC4(3) uptake) (E. coli cells)	toxicity of the dinQ peptide upon UV induction (E. coli ER2566)	also measured
MIDKAIIVLGALIALLELIRFLLQLLN (listed as Escherichia coli) [ORF5, DinQ ORF-V peptide with N-terminal Met, form translated from GUG start codon, 27 aa]	rapid and dramatic effects on the membrane integrity	–	toxic/growth inhibitory effect on IPTG plates (wild type E. coli; pET28b(+) constructs, IPTG induction, absence of UV): strong toxicity; effect on membrane integrity / depolarization (DiBAC4(3) uptake) (E. coli cells; listed as DinQ ORF5): most pronounced; effect on intracellular ATP (agrB mutant BK4043): impairs the energy supply in the form of ATP; effect on membrane integrity (ghost cells) by microscopy (E. coli [1]): damages membrane integrity; colony phenotype after induction (E. coli [2]): appearance of small colony variants (SCV)
MIDKAIIVLGAIVALLELIRFLLQLLN [L12I and I13V]	–	maintain the toxicity	–
MIDKAIIVLKALIALLELIRFLLQLLN (G10K variant of dinQ ORF V peptide)	–	maintain the toxicity	–
MIDKAIVVLGALIALLELIRFLLQLLN (I7V variant of dinQ ORF V peptide)	–	maintain the toxicity	–
ORF3: amino acid sequence of the dinQ III polypeptide (ORF-III), 42 aa (MSKRMHSHSIAWRKRVIDKAIIVLGALIALLELIRFLLQLLN; listed as Escherichia coli)	rapid and dramatic effects on the membrane integrity	–	–
DinQ ORF2: amino acid sequence of the dinQ II polypeptide (ORF-II), 49 aa (MRRDRQWMSKRMHSHSIAWRKRVIDKAIIVLGALIALLELIRFLLQLLN; listed as Escherichia coli)	rapid and dramatic effects on the membrane integrity	–	–
MIDKAIIVLGALIALLELIRFLIQLLN (L23I variant of dinQ ORF V peptide)	–	maintain the toxicity	–
ORF4: amino acid sequence of the dinQ IV polypeptide (ORF-IV), 38 aa (MHSHSIAWRKRVIDKAIIVLGALIALLELIRFLLQLLN; listed as Escherichia coli)	rapid and dramatic effects on the membrane integrity	–	toxicity on titration with increasing concentrations of IPTG (wild type E. coli; very low doses of IPTG induction): highly toxic
